Measured values as given in patent US8017612B2, “Piperazine compound and use thereof as a HCV polymerase inhibitor” (priority 2006, dated 2011).
pIC50: −log10 of the molar value. Where a name gives a salt, the structure may show the parent alone.

Assays:
[1] = target: T1, HCV polymerase (NS5B) type 1b (Hepatitis C virus genotype 1b, UniProt P26663); experiment: Assay of enzyme (HCV polymerase) inhibitory activity, type 1b enzyme; type: biochemical, HCV BK strain (type 1b); settings: HCV polymerase inhibitory activity (IC50), 1b, type 1b enzyme 0.5 μg/ml, 25° C., 60 min
T1 construct: a region encoding NS5B (J Virol 1991 March, 65(3), 1105-13, 544 amino acids after deletion of 47 amino acids on the C-terminal); 6xHis (C); made in house; host or cells: Escherichia coli
Outline: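 His-tagged, C-terminally truncated NS5B (BK strain, 1b; 0.5 μg/ml) incubated with compound 60 min at 25 °C on 3′UTR-derived substrate RNA (5 μg/ml), 50 μM ATP/GTP/CTP, 2 μM UTP plus [3H]UTP, pH 7.5. Acid-precipitated RNA counted; IC50 from radioactivity with and without compound.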

[2] = target: T2, HCV polymerase (NS5B) type 1a (Hepatitis C virus genotype 1a, UniProt P26664); experiment: Assay of enzyme (HCV polymerase) inhibitory activity, type 1a enzyme; type: biochemical, HCV type 1a (cloned from the blood of patients); settings: HCV polymerase inhibitory activity (IC50), 1a, type 1a enzyme 1.5 μg/ml, 25° C., 60 min
T2 construct: made in house; host or cells: Escherichia coli (by the 'similar method' of the 1b enzyme)
Outline: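 His-tagged NS5B, C-terminal 47 residues deleted, type 1a at 1.5 μg/ml, with 5 μg/ml HCV 3′UTR substrate RNA, 50 μM ATP/GTP/CTP, 2 μM UTP plus [3H]UTP, pH 7.5 Tris, 5 mM MgCl2; 60 min at 25° C. TCA-precipitated RNA counted by scintillation; IC50 from radioactivity with vs. without compound.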

Structure (SMILES)	pIC50 [1]	pIC50 [2]
CC(C)c1ccc(CNC(=O)[C@H]2CN(c3nc(N)n[nH]3)CCN2S(=O)(=O)c2ccc(C(F)(F)F)cc2)cc1 [Example 368, (R)-4-(5-amino-2H-[1,2,4]triazol-3-yl)-1-(4-trifluoromethyl-benzenesulfonyl)-piperazine-2-carboxylic acid 4-isopropyl-benzylamide]	6.00 to 7.00	< 6.00
Cc1nc(N2CCN(S(=O)(=O)c3ccc(OC(F)(F)F)cc3)[C@@H](C(=O)NCc3ccc(C(C)C)cc3)C2)sc1C(=O)N[C@H](C)C(=O)O [Example 369, (R)-2-({2-[(R)-3-(4-isopropyl-benzylcarbamoyl)-4-(4-trifluoromethoxy-benzenesulfonyl)-piperazin-1-yl]-4-methyl-thiazole-5-carbonyl}-amino)-propionic acid]	> 7.00	> 7.00
Cc1nc(N2CCN(S(=O)(=O)c3ccc(OC(F)(F)F)cc3)[C@@H](C(=O)NCc3ccc(C(C)C)cc3)C2)sc1C(=O)N[C@@H](C)C(=O)O [Example 370, (S)-2-({2-[(R)-3-(4-isopropyl-benzylcarbamoyl)-4-(4-trifluoromethoxy-benzenesulfonyl)-piperazin-1-yl]-4-methyl-thiazole-5-carbonyl}-amino)-propionic acid]	> 7.00	6.00 to 7.00
Cc1nc(N2CCN(S(=O)(=O)c3ccc(C(F)(F)F)cc3)[C@@H](C(=O)NCc3ccc(C(C)C)cc3)C2)oc1C(=O)O [Example 371, 2-[(R)-3-(4-isopropyl-benzylcarbamoyl)-4-(4-trifluoromethyl-benzenesulfonyl)-piperazin-1-yl]-4-methyl-oxazole-5-carboxylic acid trifluoroacetate]	6.00 to 7.00	6.00 to 7.00
CC(C)c1ccc(CNC(=O)[C@H]2CN(c3nc(Br)n[nH]3)CCN2S(=O)(=O)c2ccc(C(F)(F)F)cc2)cc1 [Example 372, (R)-4-(5-bromo-2H-[1,2,4]triazol-3-yl)-1-(4-trifluoromethyl-benzenesulfonyl)-piperazine-2-carboxylic acid 4-isopropyl-benzylamide]	> 7.00	6.00 to 7.00
CC(C)c1ccc(CNC(=O)[C@H]2CN(c3ncn[nH]3)CCN2S(=O)(=O)c2ccc(C(F)(F)F)cc2)cc1 [Example 373, (R)-4-(2H-[1,2,4]triazol-3-yl)-1-(4-trifluoromethyl-benzenesulfonyl)-piperazine-2-carboxylic acid 4-isopropyl-benzylamide]	6.00 to 7.00	< 6.00
CCCc1ccc(CNC(=O)[C@H]2CN(c3cnc(C(=O)O)cn3)CCN2S(=O)(=O)c2ccc(OC(F)(F)F)cc2)cc1 [Example 374, (R)-3-(4-propyl-benzylcarbamoyl)-4-(4-trifluoromethoxy-benzenesulfonyl)-3,4,5,6-tetrahydro-2H-[1,2′]bipyrazinyl-5′-carboxylic acid]	> 7.00	> 7.00
CCCc1ncc(S(=O)(=O)N2CCN(C(C)=O)C[C@@H]2C(=O)NCc2ccc(C(C)C)cc2)s1 [Example 375, (R)-4-acetyl-1-(2-propyl-thiazole-5-sulfonyl)-piperazine-2-carboxylic acid 4-isopropyl-benzylamide]	> 7.00	> 7.00
CC(C)c1ccc(CNC(=O)[C@H]2CN(c3ccc(C(=O)O)nn3)CCN2S(=O)(=O)c2ccc(C(F)(F)F)cc2)cc1 [Example 376, 6-[(R)-3-(4-isopropyl-benzylcarbamoyl)-4-(4-trifluoromethyl-benzenesulfonyl)-piperazin-1-yl]-pyridazine-3-carboxylic acid]	> 7.00	> 7.00
CC(C)c1ccc(CNC(=O)[C@H]2CN(c3cnc(C(N)=O)cn3)CCN2S(=O)(=O)c2ccc(C(F)(F)F)cc2)cc1 [Example 377, (R)-4-(4-trifluoromethyl-benzenesulfonyl)-3,4,5,6-tetrahydro-2H-[1,2′]bipyrazinyl-3,5′-dicarboxylic acid 5′-amide 3-(4-isopropyl-benzylamide)]	> 7.00	> 7.00
CCCc1ccc(CNC(=O)[C@H]2CN(c3nc(C)c(C(=O)O)s3)CCN2S(=O)(=O)c2ccc(OC(F)(F)F)cc2)cc1 [Example 378, 4-methyl-2-[(R)-3-(4-propyl-benzylcarbamoyl)-4-(4-trifluoromethoxy-benzenesulfonyl)-piperazin-1-yl]-thiazole-5-carboxylic acid]	> 7.00	> 7.00
Cc1nc(N2CCN(S(=O)(=O)c3ccc(OC(F)(F)F)cc3)[C@@H](C(=O)NCc3ccc(N(C)C)cc3)C2)sc1C(=O)O [Example 379, 2-[(R)-3-(4-dimethylamino-benzylcarbamoyl)-4-(4-trifluoromethoxy-benzenesulfonyl)-piperazin-1-yl]-4-methyl-thiazole-5-carboxylic acid hydrochloride]	> 7.00	> 7.00
CCCc1ccc(S(=O)(=O)N2CCN(c3nc(C)c(C(=O)O)s3)C[C@@H]2C(=O)NCc2ccc(C(C)C)cc2)s1 [Example 380, 2-[(R)-3-(4-isopropyl-benzylcarbamoyl)-4-(5-propyl-thiophene-2-sulfonyl)-piperazin-1-yl]-4-methyl-thiazole-5-carboxylic acid]	> 7.00	> 7.00
Cc1nc(N2CCN(S(=O)(=O)c3ccc4c(c3)CCCCC4)[C@@H](C(=O)NCc3ccc(C(C)C)cc3)C2)sc1C(=O)O [Example 381, 2-[(R)-3-(4-isopropyl-benzylcarbamoyl)-4-(6,7,8,9-tetrahydro-5H-benzocycloheptene-2-sulfonyl)-piperazin-1-yl]-4-methyl-thiazole-5-carboxylic acid]	> 7.00	> 7.00
CC(C)c1ccc(CNC(=O)[C@H]2CN(c3nc(CCC(=O)O)cs3)CCN2S(=O)(=O)c2ccc(OC(F)(F)F)cc2)cc1 [Example 382, 3-{2-[(R)-3-(4-isopropyl-benzylcarbamoyl)-4-(4-trifluoromethoxy-benzenesulfonyl)-piperazin-1-yl]-thiazol-4-yl}-propionic acid]	6.00 to 7.00	6.00 to 7.00
Cc1nc(N2CCN(S(=O)(=O)c3ccc(OC(F)(F)F)cc3)[C@@H](C(=O)NCc3ccc(C4CC4)cc3)C2)sc1C(=O)O [Example 383, 2-[(R)-3-(4-cyclopropyl-benzylcarbamoyl)-4-(4-trifluoromethoxy-benzenesulfonyl)-piperazin-1-yl]-4-methyl-thiazole-5-carboxylic acid]	> 7.00	> 7.00
CC(C)c1ccc(CNC(=O)[C@H]2CN(C(=O)CNCC(=O)O)CCN2S(=O)(=O)c2ccc(C(F)(F)F)cc2)cc1 [Example 384, {2-[(R)-3-(4-isopropyl-benzylcarbamoyl)-4-(4-trifluoromethyl-benzenesulfonyl)-piperazin-1-yl]-2-oxo-ethylamino}-acetic acid hydrochloride]	6.00 to 7.00	6.00 to 7.00
CC(C)c1ccc(CNC(=O)[C@H]2CN(c3cnc(C(=O)O)cn3)CCN2S(=O)(=O)c2ccc(OC(F)(F)F)cc2)cc1 [Example 385, (R)-3-(4-isopropyl-benzylcarbamoyl)-4-(4-trifluoromethoxy-benzenesulfonyl)-3,4,5,6-tetrahydro-2H-[1,2′]bipyrazinyl-5′-carboxylic acid]	> 7.00	> 7.00
O=C(O)c1cnc(N2CCN(S(=O)(=O)c3ccc(OC(F)(F)F)cc3)[C@@H](C(=O)NCc3ccc(OC(F)(F)F)cc3)C2)cn1 [Example 386, (R)-4-(4-trifluoromethoxy-benzenesulfonyl)-3-(4-trifluoromethoxy-benzylcarbamoyl)-3,4,5,6-tetrahydro-2H-[1,2′]bipyrazinyl-5′-carboxylic acid]	> 7.00	> 7.00
Cc1nc(N2CCN(S(=O)(=O)c3ccc(OC(F)(F)F)cc3)[C@@H](C(=O)NCc3ccc(N(C)C)nc3)C2)sc1C(=O)O [Example 387, 2-[(R)-3-[(6-dimethylamino-pyridin-3-ylmethyl)-carbamoyl]-4-(4-trifluoromethoxy-benzenesulfonyl)-piperazin-1-yl]-4-methyl-thiazole-5-carboxylic acid]	> 7.00	> 7.00
CCCc1ccc(CNC(=O)[C@H]2CN(c3nc(C)c(C(=O)O)s3)CCN2S(=O)(=O)c2ccc(OC(F)(F)F)cc2)cn1 [Example 388, 4-methyl-2-[(R)-3-[(6-propyl-pyridin-3-ylmethyl)-carbamoyl]-4-(4-trifluoromethoxy-benzenesulfonyl)-piperazin-1-yl]-thiazole-5-carboxylic acid]	> 7.00	6.00 to 7.00
Cc1nc(N2CCN(S(=O)(=O)c3ccc(OC(F)(F)F)cc3)[C@@H](C(=O)NCc3ccc(N4CCC4)nc3)C2)sc1C(=O)O [Example 389, 2-[(R)-3-[(6-azetidin-1-yl-pyridin-3-ylmethyl)-carbamoyl]-4-(4-trifluoromethoxy-benzenesulfonyl)-piperazin-1-yl]-4-methyl-thiazole-5-carboxylic acid]	> 7.00	6.00 to 7.00
Cc1nc(N2CCN(S(=O)(=O)c3ccc(OC(F)(F)F)cc3)[C@@H](C(=O)NCc3ccc(N4CCCC4)nc3)C2)sc1C(=O)O [Example 390, 4-methyl-2-[(R)-3-[(6-pyrrolidin-1-yl-pyridin-3-ylmethyl)-carbamoyl]-4-(4-trifluoromethoxy-benzenesulfonyl)-piperazin-1-yl]-thiazole-5-carboxylic acid]	> 7.00	6.00 to 7.00
